Results published in US9181214B2 (RHIZEN PHARMACEUTICALS SA, priority 2011, dated 2015).
pEC50: −log10 of the molar value.

Legend:
human GPR119 = molecular target: T1, human GPR119 (Homo sapiens, UniProt Q8TDV5); assay: In vitro cyclic AMP assay (Cisbio HTRF) in HEK293 cells transfected with human GPR119; assay type: cell-based; conditions: cAMP; for activation at 10 µM: 1 h, % Induction @ 10 μM; for pEC50: Emax varies between 65 to 80%
T1 construct: expressed in transfected cells; host or cells: HEK293 (transient transfection, Lipofectamine 2000)
T1 sequence (Q8TDV5 1-335): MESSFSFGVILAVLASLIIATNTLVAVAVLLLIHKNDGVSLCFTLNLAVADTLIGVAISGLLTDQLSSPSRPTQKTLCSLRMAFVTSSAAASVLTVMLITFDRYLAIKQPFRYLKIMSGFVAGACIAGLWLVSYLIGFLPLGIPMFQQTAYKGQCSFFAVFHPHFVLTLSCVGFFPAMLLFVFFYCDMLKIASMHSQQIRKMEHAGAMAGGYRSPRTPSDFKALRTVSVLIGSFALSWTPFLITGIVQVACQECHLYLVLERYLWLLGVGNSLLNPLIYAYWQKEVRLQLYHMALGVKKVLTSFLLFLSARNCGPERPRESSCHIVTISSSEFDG
Description: A. In Vitro Cyclic AMP Assay:
cAMP measurements were done using a Cisbio dynamic 2 HTRF kit (Cisbio, Bedford, Mass.) according to the manufacturer's protocol. Briefly, HEK293 cells (0.2×10^6/well) were plated in a 24 well plate and incubated overnight at 37° C. Cells were transfected with either empty vector DNA or human GPR119 expression plasmid DNA using Lipofectamine 2000 (Invitrogen). After 24 h, transfected cells were harvested, counted and plated at 1000 cells/5 ul in a black 384 welled small volume plate. Cells were treated with desired concentrations of compounds and incubated for 60 min at room temperature. Lysis buffer containing cAMP-d2 and cryptate conjugate were added and incubated for 1 h. HRTF ratio was measured on a microplate reader (BMG Labtech., Germany) at an excitation wavelength of 337 nm and emission wavelengths of 665 and 620 nm with an integration time of 400 μsec. Data were analyzed using Graphpad Prism (Graphpad software; San Diego Calif.) for EC50 determination.
The results are as given in Table I as % Induction@ 10 μM, Table II as % Induction@ 10 μM and EC 50 in nM

C57Bl/6J mice = assay: Oral glucose tolerance test (OGTT) in C57Bl/6J mice; assay type: in vivo; conditions: single oral dose 1 h before 2.0 g/kg oral glucose, sitagliptin 10 mg/kg, vs vehicle
Description: FIG. 1 is a graph of blood glucose over time in C57BI/6J mice according to the oral glucose tolerance test (Biological Assay Procedure E) before and after oral administration of vehicle (control), compound A (Example 64@ 30 mg/kg), or sitagliptin (10 mg/kg @ 10 mg/kg).
FIG. 2 is a graph of blood glucose over time in C57BI/6J mice according to the oral glucose tolerance test (Biological Assay Procedure E) before and after oral administration of vehicle (control), compound […] (Example 42 @ 10 mg/kg), or sitagliptin (10 mg/kg @ 10 mg/kg).
E: Oral Glucose Tolerance Test (OGTT) in C57Bl/6J Mice:
After the quarantine period, 6 hr fasted animals were randomized and divided into various groups depending on their blood glucose levels. Test compounds or standard drug (sitagliptin) was prepared as a suspension in a vehicle consisting of 0.5% methylcellulose and Tween 80 as a suspending agent. The standard drug, Compound A (example-64), Compound B (example-42) or vehicle were administered by oral gavage in a volume of 10 mL/kg. 1 h after the test compounds, standard drug and vehicle administration, blood was sampled from the tail vein of mice at time 0 min (baseline) and at 30, 60, 90 and 120 min after an oral glucose load of 2.0 g/kg of body weight. Food, but not water, was withheld from the cages during the course of experiment. The area under curve (AUC) of experimental animals was compared with that of vehicle-treated control group. The results are shown in FIGS. 1 and 2 and are discussed below.

Row | Structure (SMILES) | melting point | activation at 10 µM (human GPR119; Table I) | other results
1 | CS(=O)(=O)c1ccc(-c2nc3cc(C4CCN(c5ncc(F)cn5)CC4)ccc3o2)c(F)c1 [EXAMPLE-81] | 220 to 222 °C | – | activation at 10 µM (human GPR119; Table II): 43%
2 | CC(C)OC(=O)N1CCC(c2nc3ccc(-c4ccc(C(F)F)cc4)cc3o2)CC1 [EXAMPLE-33, Isopropyl 4-{6-[4-(difluoromethyl)phenyl]benzo[d]oxazol-2-yl}piperidine-1-carboxylate] | 149 to 153 °C | 10.6% | –
3 | N[C@@H](CC(=O)N1CCn2c(nnc2C(F)(F)F)C1)Cc1cc(F)c(F)cc1F [Sitagliptin, sitagliptin, reference compound] | – | – | lowered AUCglucose (C57Bl/6J mice; FIG. 1 study, Compound A 30 mg/kg): 59%; lowered AUCglucose (C57Bl/6J mice; FIG. 2 study, Compound B 10 mg/kg): 50%
4 | CC(C)CC(=O)N1CCC(c2nc3cc(-c4ccc(C(N)=O)c(F)c4)ccc3o2)CC1 [EXAMPLE-39, 2-Fluoro-4-{2-[1-(3-methylbutanoyl)piperidin-4-yl]benzo[d]oxazol-5-yl}benzamide] | 186 to 190 °C | 27.5% | –
5 | CC(C)OC(=O)N1CCC(c2nc3cc(-c4ccc(C(=O)O)cn4)ccc3o2)CC1 [EXAMPLE-34, 6-{2-[1-(isopropoxycarbonyl)piperidin-4-yl]benzo[d]oxazol-5-yl}nicotinic acid] | 239 to 242 °C | – | –
6 | CC(C)OC(=O)N1CCC(c2nc3cc(-c4ccc(C(N)=O)cc4F)ccc3o2)CC1 [EXAMPLE-37, Isopropyl 4-[5-(4-carbamoyl-2-fluorophenyl)benzo[d]oxazol-2-yl]piperidine-1-carboxylate] | 194 to 197 °C | 6.56% | –
7 | CC(C)(C)OC(=O)N1CCC(c2ccc3nc(-c4ccc(C(F)(F)F)cc4)oc3c2)CC1 [EXAMPLE-84, Tert-butyl 4-{2-[4-(trifluoromethyl)phenyl]benzo[d]oxazol-6-yl}piperidine-1-carboxylate] | 174 to 179 °C | – | activation at 10 µM (human GPR119; Table II): 13.2%
8 | CC(C)CC(=O)N1CCC(c2nc3cc(-c4ccc(-n5cnnn5)cc4F)ccc3o2)CC1 [EXAMPLE-40, 1-{4-[5-(2-fluoro-4-(1H-tetrazol-1-yl)phenyl]benzo[d]oxazol-2-yl]piperidin-1-yl}-3-methylbutan-1-one] | 168 to 172 °C | 21.9% | –
9 | CC(C)OC(=O)N1CCC(c2nc3cc(-c4ccc(C(N)=O)cn4)ccc3o2)CC1 [EXAMPLE-36, Isopropyl 4-[5-(5-carbamoylpyridin-2-yl)benzo[d]oxazol-2-yl]piperidine-1-carboxylate] | 227 to 230 °C | 4.83% | –
10 | CC(C)NC(=O)c1ccc(-c2ccc3oc(C4CCN(C(=O)OC(C)C)CC4)nc3c2)cc1F [EXAMPLE-46, Isopropyl 4-{5-[3-fluoro-4-(isopropylcarbamoyl)phenyl]benzo[d]oxazol-2-yl}piperidine-1-carboxylate] | 147 to 150 °C | 53% | –
11 | CC(C)OC(=O)N1CCC(c2nc3cc(-c4ccc(C(=O)NC5CC5)c(F)c4)ccc3o2)CC1 [EXAMPLE-50, Isopropyl 4-{5-[4-(cyclopropylcarbamoyl)-3-fluorophenyl]benzo[d]oxazol-2-yl}piperidine-1-carboxylate] | 162 to 165 °C | 38.7% | –
12 | CC(C)C(=O)N1CCC(c2nc3cc(-c4ccc(C(N)=O)c(F)c4)ccc3o2)CC1 [EXAMPLE-43, 2-Fluoro-4-[2-(1-isobutyrylpiperidin-4-yl)benzo[d]oxazol-5-yl]benzamide] | 193 to 196 °C | 48.8% | –
13 | CNS(=O)(=O)c1ccc(-c2ccc3oc(C4CCN(C(=O)OC(C)C)CC4)nc3c2)cc1 [EXAMPLE-47, Isopropyl 4-{5-[4-(N-methylsulfamoyl)phenyl]benzo[d]oxazol-2-yl}piperidine-1-carboxylate] | 179 to 181 °C | 33.1% | –
14 | CNC(=O)c1ccc(-c2ccc3oc(C4CCN(C(=O)OC(C)C)CC4)nc3c2)cn1 [EXAMPLE-48, Isopropyl 4-{5-[6-(methylcarbamoyl)pyridin-3-yl]benzo[d]oxazol-2-yl}piperidine-1-carboxylate] | 158 to 161 °C | 26.7% | –
15 | NC(=O)c1ccc(-c2ccc3oc(C4CCN(c5ncc(F)cn5)CC4)nc3c2)cc1F [EXAMPLE-51, 2-Fluoro-4-{2-[1-(5-fluoropyrimidin-2-yl)piperidin-4-yl]benzo[d]oxazol-5-yl}benzamide] | 226 to 229 °C | 38.7% | –
16 | CNC(=O)c1ccc(-c2ccc3oc(C4CCN(C(=O)OC(C)C)CC4)nc3c2)cc1C [EXAMPLE-49, Isopropyl 4-{5-[3-methyl-4-(methylcarbamoyl)phenyl]benzo[d]oxazol-2-yl}piperidine-1-carboxylate] | 151 to 154 °C | 32.9% | –
17 | CC(C)OC(=O)N1CCC(c2nc3cc(-c4ccc(C(N)=O)cc4Cl)ccc3o2)CC1 [EXAMPLE-38, Isopropyl 4-[5-(4-carbamoyl-2-chlorophenyl)benzo[d]oxazol-2-yl]piperidine-1-carboxylate] | 178 to 182 °C | 16.6% | –
18 | CC(C)OC(=O)N1CCC(c2nc3cc(-c4ccc(C(=O)NCCO)c(F)c4)ccc3o2)CC1 [EXAMPLE-45, Isopropyl 4-{5-[3-fluoro-4-(2-hydroxyethylcarbamoyl)phenyl]benzo[d]oxazol-2-yl}piperidine-1-carboxylate] | 145 to 147 °C | 56.4% | –
19 | CC(C)(C)OC(=O)N1CC=C(c2ccc3oc(-c4ccc(S(C)(=O)=O)cc4F)nc3c2)CC1 [EXAMPLE-59, Tert-butyl 4-{2-[2-fluoro-4-(methylsulfonyl)phenyl]benzo[d]oxazol-5-yl}-5,6-dihydropyridine-1(2H)-carboxylate] | – | – | activation at 10 µM (human GPR119; Table II): 63.8%
20 | CS(=O)(=O)c1ccc(-c2nc3cc(C4CCN(C(=O)OCc5ccccc5)CC4)ccc3o2)c(F)c1 [EXAMPLE-74, Benzyl 4-{2-[2-fluoro-4-(methylsulfonyl)phenyl]benzo[d]oxazol-5-yl}piperidine-1-carboxylate] | – | – | activation at 10 µM (human GPR119; Table II): 14.7%
21 | CS(=O)(=O)c1ccc(-c2nc3cc(C4CCNCC4)ccc3o2)c(F)c1 [EXAMPLE-61, 2-[2-fluoro-4-(methylsulfonyl)phenyl]-5-(piperidin-4-yl)benzo[d]oxazole 2,2,2-trifluoroacetate] | – | – | activation at 10 µM (human GPR119; Table II): 29.8%
22 | CC(C)OC(=O)N1CCC(c2nc3ccc(-c4ccc(C(N)=O)c(F)c4)cc3o2)CC1 [EXAMPLE-44, Isopropyl 4-[6-(4-carbamoyl-3-fluorophenyl)benzo[d]oxazol-2-yl]piperidine-1-carboxylate] | 178 to 181 °C | 64.8% | pEC50 (human GPR119; Table I): 7.30 to 7.60
23 | CS(=O)(=O)N1CCC(c2nc3cc(-c4ccc(-n5cnnn5)cc4F)ccc3o2)CC1 [EXAMPLE-35, 5-[2-fluoro-4-(1H-tetrazol-1-yl)phenyl]-2-[1-(methylsulfonyl)piperidin-4-yl]benzo[d]oxazole] | 209 to 212 °C | 0.28% | –
24 | CC(C)OC(=O)N1CCC(c2nc3cc(-c4ccc(S(C)(=O)=O)cc4F)ccc3o2)CC1 [EXAMPLE-7, Isopropyl 4-{5-[2-fluoro-4-(methylsulfonyl)phenyl]benzo[d]oxazol-2-yl}piperidine-1-carboxylate] | – | 62.6% | pEC50 (human GPR119; Table I): 7.00 to 7.30
25 | COCCN1CCC(c2nc3cc(-c4ccc(-n5cnnn5)cc4F)ccc3o2)CC1 [EXAMPLE-41, 5-[2-fluoro-4-(1H-tetrazol-1-yl)phenyl]-2-[1-(2-methoxyethyl)piperidin-4-yl]benzo[d]oxazole] | 148 to 152 °C | – | –
